Measured values as given in patent US9546354B2, “Z cells activated by zinc finger-like protein and uses thereof in cancer treatment” (National Cheng Kung University, priority 2014, dated 2017).
“Also recorded” adds a separate entry of the source. No end group written: not given here. TMR = tetramethylrhodamine label

What was measured:
DsRed-Hyal-2 = assay: Förster resonance energy transfer (FRET) analysis; assay type: binding; conditions: versus EGFP and DsRed controls, n=10, p<0.005
spleen Z cells = assay: level of TMR-Zfra-positive spleen Z cells by cell sorting; assay type: in vivo; conditions: Zfra-treated BALB/c mice inoculated with B16F10 melanoma
Method: (§1) FIG. 3 is a diagram showing identification of Z spleen cells. (A) Nude mice were pre-injected with sterile MilliQ water or a mixture of Zfra1-31 (2 mM in 100 μl sterile water) in 4 consecutive weeks, followed by inoculating malignant breast MDA-MB-231 cells on both flanks 7 and 50 days later. Tumor sizes on both flanks (blue and red) were measured daily. […] These mice were sacrificed, and TMR-Zfra-positive spleen cells were isolated by cell sorting. TMR-Zfra-positive Z spleen cells were around 25% in Zfra-treated mice. […] In B16F10 melanoma-growing BALB/c mice, spleen Z cells dropped down to 3.3% or even lower. In untreated control mice, Z cells are around 25-29%.
Next, the levels of spleen Z cells in mice pre-treated with full-length Zfra1-31 or control and inoculated with B16F10 melanoma cells were examined. B16F10-growing BALB/c mice had low levels of Z cells, which were 3.3% or lower (FIG. 3C). In contrast, Zfra-treated mice had 26.1% Z cells (FIG. 3C). […] These cells are Hyal-2 positive. The observations indicate that Z cells (e.g., Hyal-2 positive spleen cells) are depleted in mice having cancer growths, and that treatment with Zfra increases the number of Z cells in mice having cancer growths.
Spleen cells from the mice were isolated and stained with synthesized peptide TMR-Zfra1-31 (Tetramethylrhodamine-Zfra, excitation 550 nm, emission 573 nm) for 30 minutes on ice.

melanoma B16F10 cells [1] = assay: melanoma B16F10 growth in pre-injected BALB/c mice; assay type: in vivo; conditions: pre-injection before inoculation, immune competent BALB/c mice
Method: as §1
FIG. 4A is a diagram showing in vivo animal models design to test the anticancer efficacy of chemical drugs and “Z cells” activation. Immune competent BALB/c mice or immune deficient NOD-SCID mice were pre-injected with CI-4AS-1 or (±)-Blebbistatin with or without zinc finger-like Zfra4-10 peptide once per week for 3 consecutive weeks, and then inoculated with 2.5×10^6 or 1.5×10^6 malignant melanoma B16F10 cells at both right and left flanks. After 60 days, spleen cells transferred were performed from BALB/c to NOD-SCID mice via tail veins injection. Thirty days later, the recipient mice were inoculated with 1.5×10^6 malignant melanoma B16F10 cells at both right and left flanks. […]

[2] = biological target: T1, membrane hyaluronidase Hyal-2 (Mus musculus, UniProt O35632); assay: staining of spleen cells with TMR-Zfra and Hyal-2 antibody, epifluorescence and confocal microscopy; assay type: binding, NOD-SCID mice; conditions: 30 minutes on ice
T1 construct: spleen cells were isolated from immune deficient NOD-SCID mice; from tissue; host or cells: spleen cells of NOD-SCID mice
T1 sequence (O35632 21-448): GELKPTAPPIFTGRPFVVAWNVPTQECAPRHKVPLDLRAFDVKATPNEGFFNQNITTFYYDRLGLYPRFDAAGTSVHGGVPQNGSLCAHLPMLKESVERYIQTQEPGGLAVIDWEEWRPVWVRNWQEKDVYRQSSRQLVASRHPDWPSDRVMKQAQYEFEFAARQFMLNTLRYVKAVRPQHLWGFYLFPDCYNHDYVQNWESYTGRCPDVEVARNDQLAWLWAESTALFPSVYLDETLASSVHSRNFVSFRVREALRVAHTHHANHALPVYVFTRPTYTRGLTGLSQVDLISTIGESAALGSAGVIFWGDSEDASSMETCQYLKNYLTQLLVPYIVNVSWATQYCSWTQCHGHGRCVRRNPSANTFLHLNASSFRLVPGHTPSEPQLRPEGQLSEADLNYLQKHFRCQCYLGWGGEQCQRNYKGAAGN
Method: FIG. 2 includes photos showing the identification of Zfra^+ Hyal-2^+ spleen cells. A and B: Spleen cells of NOD-SCID mice were isolated and stained with synthesized peptide TMR-Zfra1-31 and Hyal-2 (green fluorescence) antibody for 30 minutes on ice, and then fixed with 4% formaldehyde.
In this example, spleen cells were isolated from immune deficient NOD-SCID mice, which are deficient in T and B lymphocytes and NK cells. The isolated spleen cells were stained with antibody against Hyal-2 (green) and TMR-Zfra (Zfra1-31 labeled with red fluorescent tetramethylrodamine) for 30 minutes on ice, and then fixed with 4% formaldehyde (FIG. 2). […] These Hyal-2^+ Zfra^+ positive cells are interchangeably referred to as “Z cells,” for cells interacting with Zfra.

breast MDA-MB-231 cells = assay: breast MDA-MB-231 xenograft growth in pre-injected nude mice; assay type: in vivo; conditions: pre-injected once per week for 4 weeks
Method: as §1

Z cells = assay: Z cell activation by Zfra peptide; assay type: cell-based, BALB/c mice; conditions: in vivo and in vitro
Method: Briefly, spleen cells were isolated from BALB/c mice and then cultured overnight. These cells were stimulated with Zfra4-10 peptide (10 μM) for 16-24 hr, and then stained with TMR-Zfra, followed by isolating the cells using a cell sorter. Z+ and Z− cell populations were counted and injected via tail veins of BALB/c. […] FIG. 5.

melanoma B16F10 cells [3] = assay: melanoma B16F10 lung metastasis after tail-vein inoculation in pre-injected BALB/c mice; assay type: in vivo
Method: (§2) FIG. 1 includes photos showing that Zfra suppresses melanoma B16F10 metastasis to the lung and cancer stemness. BALB/c mice were pre-injected with sterile MilliQ water or Zfra4-10 (1 mM in 100 μl sterile water) in 3 consecutive weeks. Post-treatment for a week, these mice were inoculated with melanoma B16F10 cells via tail veins (2×10^5 cells in 100 μl PBS). Control mice died 50 days later, and Zfra-treated mice were alive and sacrificed for examination. A: Shown on the lung surface are the metastatic tumor foci as dark areas in control mice. […] No metastases were found in other organs in both mice. C: Zfra suppressed Ser14 phosphorylation of […] (or Wwox) in the lung of Zfra treated mice (˜65% suppression).
BALB/c mice were pre-injected with sterile MilliQ water or Zfra4-10 (1 mM in 100 μl sterile water) once per week in three consecutive weeks. Following one week post-treatment, the mice were inoculated with melanoma B16F10 cells via tail veins (2×10^5 cells in 100 μl PBS).
(§3) Importantly, cancer cell stemness, as determined by the expression of pluripotent stem cell markers Oct-4 and SSEA-4, was blocked in the lungs of Zfra4-10 treated mice (FIG. 1D). Thus, when WWOX phosphorylation at Ser14 is blocked by Zfra, cancer cell metastasis and stemness is prevented.

WWOX = assay: Ser14 phosphorylation of WWOX and Wwox protein level in the lung of treated mice; assay type: in vivo, BALB/c mice
Method: as §2, §3

Z cell function = assay: screen of more than 300 compounds for boosting Z cell function; conditions: alone or in combination with a Zfra peptide
Source text: In this example, more than 300 hundred compounds were screened for their activities in boosting Z cell function either alone or in combination with a Zfra peptide. From this collection of compounds, CI-4AS-1 (androgen receptor agonist) and (±)-Blebbistatin (inhibitor for non-muscle myosin II ATPase) were identified.

Zfra: Zfra peptide, form not stated at the place (Zfra1-31 or Zfra4-10) (MSSRRSSSCKYCEQDFRAHTQKNAATPFLAN)
binding to Hyal-2 by FRET (DsRed-Hyal-2): binding of Zfra to membrane Hyal-2 | TMR-Zfra-positive Z spleen cells (spleen Z cells): around 25% | growth of melanoma B16F10 in BALB/c mice (melanoma B16F10 cells [1]): completely blocked

TMR-Zfra1-31: Zfra1-31 labeled with red fluorescent tetramethylrodamine ({TMR}-MSSRRSSSCKYCEQDFRAHTQKNAATPFLAN; cysteine pairing not given here)
binding to or colocalization with membrane Hyal-2 on spleen cells [2]: bound to membrane hyaluronidase Hyal-2 | binding to or colocalization with membrane Hyal-2 on spleen cells ([2]; listed as TMR-Zfra): colocalization of both proteins on the cell surface

NH-MSSRRSSSCKYCEQDFRAHTQKNAATPFLAN-COOH (H-MSSRRSSSCKYCEQDFRAHTQKNAATPFLAN-OH; cysteine pairing not given here) [Zfra1-31]
growth of breast MDA-MB-231 xenografts (breast MDA-MB-231 cells): resisted the growth | TMR-Zfra-positive Z spleen cells (spleen Z cells): 26.1%

RRSSSCK [Zfra4-10]
Z cell activation (Z cells): sufficient to induce Z cell activation both in vivo and in vitro | cancer cell stemness (pluripotent markers Oct-4 and SSEA-4) in the lung (melanoma B16F10 cells [3]; B16F10 cells in the lung, FIG. 1D): suppressed the stemness; also recorded: blocked | melanoma B16F10 metastasis to the lung (melanoma B16F10 cells [3]; Zfra4-10 1 mM in 100 μl once per week for 3 weeks before 2×10^5 B16F10 cells via tail veins): Metastasis was not found; also recorded: suppressed melanoma B16F10 metastasis to the lung | survival of mice (melanoma B16F10 cells [3]; when control mice died 50 days after inoculation of B16F10 cells): remained alive | Wwox protein levels (WWOX; lung of Zfra treated mice): not suppressed | suppression of Ser14 phosphorylation of WWgre (or Wwox) in the lung (WWOX; lung of Zfra treated mice, FIG. 1C): ~65% | Ser14 phosphorylation of WWOX (in words) (WWOX; lung of treated mice, FIG. 1C): inhibition of Ser14 phosphorylation of WWOX | growth of melanoma B16F10 in BALB/c mice (melanoma B16F10 cells [1]): prevented melanoma B16F10 growth

CI-4AS-1
outcome of screen for boosting Z cell function (Z cell function): identified

Cc1ccc2c(c1)C(=O)C1(O)CCN(c3ccccc3)C1=N2 (racemic) [(±)-Blebbistatin]
outcome of screen for boosting Z cell function (Z cell function): identified

EGFP-Zfra: EGFP-tagged Zfra used in FRET analysis with DsRed-Hyal-2 (MSSRRSSSCKYCEQDFRAHTQKNAATPFLAN; cysteine pairing not given here; also: EGFP tag fused, end not given here) [reference compound]
binding to Hyal-2 by FRET (DsRed-Hyal-2): significant binding
